Source: publication PMC11314621, “Cheminformatics-Guided Exploration of Synthetic Marine Natural Product-Inspired Brominated Indole-3-Glyoxylamides and Their Potentials for Drug Discovery” (Molecules, 2024)
Read-outs that look alike come from different tables or passages of the source.

How the values were obtained:
protein kinase C = settings: ref [15]; cited from earlier work
α-synuclein = molecular target: T1, α-synuclein (Homo sapiens, UniProt P37840); assay: In vitro α-synuclein affinity MS-binding assay; settings: 3 h incubation, 5:1 molar ratio, (+)-HRESIMS
T1 construct: α-synuclein protein solutions (10 μM) were prepared in 10 mM ammonium acetate
Method: The synthetic indoles were incubated with α-syn for 3 h at a 5:1 molar ratio, after which a (+)- mode high-resolution MS spectrum was acquired.
α-synuclein protein solutions (10 μM) were prepared in 10 mM ammonium acetate. Synthetic IGAs 25, 26, 34, 41, 45, 46, 51, and 52 (100 μM) were dissolved in 100% MeOH and incubated with α-syn at room temperature for 3 h. Protein-ligand interactions were analysed using (+) HRESIMS calibrated with sodium trifluoroacetate (0.1 mg/mL) with the following parameters: nebuliser 2.0 Bar; dry gas 7 L/min; dry temp 150 °C; funnel I RF 400 Vpp; end plate offset 500 V; capillary 4500 V; ISCID 0.0 ev; ion energy 4.0 eV; transfer time 100 μs; multipole RF 800 Vpp; collision RF 1200 Vpp; prepulse storage 10 μs; spectra rate: 2 × 100 Hz. The resulting spectra were analysed for additional peaks representing complexes formed between α-syn and active compounds.

SARS-CoV-2 3CLpro [1] = molecular target: T2, SARS-CoV-2 3CLpro (Severe acute respiratory syndrome coronavirus 2, UniProt P0DTD1); assay: biochemical
T2 construct: Each well contained 25 nM of SARS-CoV-2 3CL^Pro and eCFP-Venus biosensor (500 nM)

[2] = molecular target: T3, porcine pancreatic elastase (Sus scrofa, UniProt P00772); assay: Serine protease assay, elastase; assay type: biochemical; settings: remaining enzyme activity
T3 construct: high-purity porcine pancreatic elastase (Sigma, Melbourne, Victoria, Australia, E0258); purchased Sigma E0258
Method: (§1) Serine protease-inhibitory activities for 25–56 were determined in 96 well plates. Each inhibitor was initially tested in duplicate against elastase and chymotrypsin at 10 µM. […] Assays for the inhibition of elastase were undertaken using high-purity porcine pancreatic elastase (Sigma, Melbourne, Victoria, Australia, E0258) in an assay buffer of 50 mM Tris-HCl (pH 8.0) at room temperature. Dilutions of each inhibitor (originally resuspended in DMSO) were prepared in triplicate and then preincubated with 375 ng of elastase for 15 min at room temperature in a total reaction volume of 85 µL. Following this preincubation, 15 µL of 2 mM N-succinyl-Ala-Ala-Ala-p-nitroanilide (Sigma, S4760) in assay buffer was added to each well and kinetic measurement of absorbance at 405 nm (Tecan Spark Plate Reader, Zürich, Switzerland) was undertaken for 30 min. […] Dilutions of each inhibitor were prepared in triplicate and preincubated with 5 µg of chymotrypsin for 10 min at 37 °C in a total reaction volume of 75 µL. After preincubation, 25 µL of 2 mM N-succinyl-Gly-Gly-Phe-p-nitroanilide (Sigma, S1899) was added to each well and kinetic measurement of absorbance at 405 nm was undertaken for 30 min. Inhibitory activity was determined by comparison of the slope of the reaction curve for multiple dilutions of the inhibitor to that of an equivalent solvent control and expressed as IC50 ± standard deviation.

[3] = molecular target: T4, α-chymotrypsin from bovine pancreas (Bos taurus, UniProt P00766); assay: Serine protease assay, chymotrypsin; assay type: biochemical; settings: for remaining activity at 10 µM / % enzyme activity @ 10 µM, chymotrypsin: remaining enzyme activity; for IC50: IC50 ± standard deviation
T4 construct: α-chymotrypsin from bovine pancreas (Sigma, C4129); purchased Sigma C4129; host or cells: bovine pancreas
Method: as §1

HEK293 cells = assay: HEK293 cell cytotoxicity; assay type: cell-based; settings: 60 µM, human embryonic kidney cell line
P. falciparum Dd2 = assay: Antiplasmodial image-based assay, Dd2 strain; assay type: cell-based, Plasmodium falciparum; settings: chloroquine-resistant P. falciparum strain Dd2
Method: (§2) An anti-plasmodial imaging assay reported by Duffy and Avery was used to examine the antiplasmodial activities of synthetic indoles 25, 26, 36, 37, 38, 40, 41, 43, 45, 46, 47, 48, 50 and 51. All compounds were diluted to […] in DMSO and tested at three increasing concentrations from 0.4 nM–40 μM per log dose in a 16-point CRC ([…]) parasite strains of Plasmodium falciparum. […] Normalised percent inhibition data was obtained using in-plate positive (4 μM DHA) and negative (0.4% DMSO) controls, which were then used to calculate IC50 values. Compounds were incubated in CellCarrier-384 well imaging plates in the presence of 2% parasitemia (3D7 or Dd2) at 0.3% hematocrit in a total assay volume of 50 μL for 72 h at 37 °C, 5% O2, 5% CO2 and 90% N2. After incubation, plates were stained with 4′,6-diamidino-2-phenylindole (DAPI) and imaged using an Opera Phenix high-content imaging system (Revvity, Mulgrave, Victoria, Australia). Images were analysed using Harmony (Revvity) software (version 3), while percent parasite inhibition was calculated using the minimum (0.4% DMSO) and (DHA). IC50 values were determined by plotting % inhibition against log dose and analysed using nonlinear regression and sigmoidal dose-response using GraphPad Prism version 6.

P. falciparum 3D7 = assay: Antiplasmodial image-based assay, 3D7 strain; assay type: cell-based, Plasmodium falciparum; settings: chloroquine-sensitive P. falciparum strain 3D7
Method: as §2

prion = settings: cited from earlier work
SARS-CoV-2 3CLpro [4] = molecular target: T2, SARS-CoV-2 3CLpro; settings: cited from earlier work; for inhibition of SARS-CoV-2 3CLPro: ref [33]
HIV-1 = tested on: HIV-1; design: method as in PMID 34095843, PMID 30940396; settings: ref [34],[35]; cited from earlier work
elastase = tested on: elastase; design: method as in PMID 37609780; settings: ref [36]; cited from earlier work

T3 sequence (P00772 27-266): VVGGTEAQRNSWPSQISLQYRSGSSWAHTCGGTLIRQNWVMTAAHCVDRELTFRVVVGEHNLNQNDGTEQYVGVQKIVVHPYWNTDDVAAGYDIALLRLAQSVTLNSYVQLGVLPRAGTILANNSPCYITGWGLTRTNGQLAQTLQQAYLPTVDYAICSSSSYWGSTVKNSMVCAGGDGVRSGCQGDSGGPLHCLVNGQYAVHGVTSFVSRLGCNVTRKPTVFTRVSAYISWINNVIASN

CO[C@@H]1[C@H](NC(=O)C(=O)c2c[nH]c3ccccc23)C[C@H]2O[C@]1(C)n1c3ccccc3c3c4c(c5c6ccccc6n2c5c31)C(=O)NC4 [Compound 13, 13G-291]
protein kinase C inhibition (protein kinase C): only weak inhibition

O=C(N[C@@H](CSSC[C@H](NC(=O)C(=O)c1c[nH]c2cc(Br)ccc12)C(=O)O)C(=O)O)C(=O)c1c[nH]c2cc(Br)ccc12 [Compound 34, 6-bromoindolyl-3-glyoxyl-L-cystine]
binding with α-syn (protein-ligand complexes in MS) (α-synuclein): α-syn binding displayed
inhibition at 20 µM (SARS-CoV-2 3CLpro [1]; 20 µM, no DTT, read-out: % inhibition @ 20 µM, No DTT): 86.1%
inhibition at 20 µM (SARS-CoV-2 3CLpro [1]; 20 µM, with DTT (4 mM), read-out: % inhibition @ 20 µM, DTT): 4.6%
IC50 (SARS-CoV-2 3CLpro [1]; no DTT): 6.4 µM
remaining activity at 10 µM [2]: 93.5%
remaining activity at 10 µM [3]: 93.1%

O=C(N[C@@H](Cc1c[nH]c2ccccc12)C(=O)O)C(=O)c1c[nH]c2ccc(Br)cc12 [Compound 45, 5-bromoindolyl-3-glyoxyl-L-tryptophan]
% Inhibition @ 60 µM, HEK293 (HEK293 cells): 24.0%
binding with α-syn (protein-ligand complexes in MS) (α-synuclein): α-syn binding displayed
% inhibition @ 20 µM, No DTT (SARS-CoV-2 3CLpro [1]; 20 µM, no DTT): 21.8%
% inhibition @ 20 µM, DTT (SARS-CoV-2 3CLpro [1]; 20 µM, with DTT (4 mM)): 3.7%
% Inhibition @ 60 µM, Dd2 (P. falciparum Dd2; 60 µM, 72 h): 56.0%
% Inhibition @ 60 µM, 3D7 (P. falciparum 3D7; 60 µM, 72 h): 73.0%
% enzyme activity @ 10 µM, elastase [2]: 94.0%
% enzyme activity @ 10 µM, chymotrypsin [3]: 69.2%
IC50 [3]: 16.3 µM

O=C(N[C@H](Cc1c[nH]c2ccccc12)C(=O)O)C(=O)c1c[nH]c2ccc(Br)cc12 [Compound 46, 5-bromoindolyl-3-glyoxyl-D-tryptophan]
inhibition at 60 µM (HEK293 cells; HEK293): 21.5%
binding with α-syn (protein-ligand complexes in MS) (α-synuclein): α-syn binding displayed
inhibition at 20 µM (SARS-CoV-2 3CLpro [1]; read-out: % inhibition @ 20 µM, DTT): 2.5%
inhibition at 20 µM (SARS-CoV-2 3CLpro [1]; read-out: % inhibition @ 20 µM, No DTT): 27.4%
% Inhibition @ 60 µM, Dd2 (P. falciparum Dd2; 60 µM, 72 h): 97.5%
inhibition at 60 µM (P. falciparum Dd2; Plasmodium falciparum, DD2, 72 h, 60 µM, 72 h): ~100%
IC50 (P. falciparum Dd2; Plasmodium falciparum): 8.2 µM
inhibition at 60 µM (P. falciparum 3D7; Plasmodium falciparum, 3D7, 72 h, 60 µM, 72 h): ~100%
IC50 (P. falciparum 3D7; Plasmodium falciparum): 7.4 µM
remaining activity at 10 µM [2]: 90.9%
remaining activity at 10 µM [3]: 47.7%
IC50 [3]: 6.3 µM

O=C(N[C@@H](Cc1ccc(O)cc1)C(=O)O)C(=O)c1c[nH]c2cc(Br)ccc12 [Compound 51, 6-bromoindolyl-3-glyoxyl-L-tyrosine]
% Inhibition @ 60 µM, HEK293 (HEK293 cells): 21.5%
binding with α-syn (protein-ligand complexes in MS) (α-synuclein): α-syn binding displayed
% inhibition @ 20 µM, No DTT (SARS-CoV-2 3CLpro [1]; 20 µM, no DTT): 23.3%
% inhibition @ 20 µM, DTT (SARS-CoV-2 3CLpro [1]; 20 µM, with DTT (4 mM)): 6.9%
% Inhibition @ 60 µM, Dd2 (P. falciparum Dd2; 60 µM, 72 h): 56.0%
% Inhibition @ 60 µM, 3D7 (P. falciparum 3D7; 60 µM, 72 h): 58.0%
% enzyme activity @ 10 µM, elastase [2]: 100.3%
% enzyme activity @ 10 µM, chymotrypsin [3]: 91.8%

O=C(N[C@H](Cc1ccc(O)cc1)C(=O)O)C(=O)c1c[nH]c2cc(Br)ccc12 [Compound 52, 6-bromoindolyl-3-glyoxyl-D-tyrosine]
binding with α-syn (protein-ligand complexes in MS) (α-synuclein): α-syn binding displayed
% inhibition @ 20 µM, No DTT (SARS-CoV-2 3CLpro [1]; 20 µM, no DTT): 14.0%
% inhibition @ 20 µM, DTT (SARS-CoV-2 3CLpro [1]; 20 µM, with DTT (4 mM)): 4.9%
% enzyme activity @ 10 µM, elastase [2]: 97.1%
% enzyme activity @ 10 µM, chymotrypsin [3]: 97.2%

COc1ccc(C/C(=N\O)C(=O)NCCc2cc(Br)c(OCCCN(C)C)c(Br)c2)cc1Br [Compound 57, aplysamine-2]
anti-prion activity in a yeast-based assay (prion; ref [25]): micromolar anti-prion activities

O=C[C@H](C[C@@H]1CCNC1=O)NC(=O)[C@H](CC1CCCCC1)NC(=O)c1cc2ccccc2[nH]1 [Compound 62]
inhibition of SARS-CoV-2 3CLPro (SARS-CoV-2 3CLpro [4]): nanomolar inhibition

O=C[C@H](C[C@@H]1CCNC1=O)NC(=O)[C@H](Cc1cccc(F)c1)NC(=O)c1cc2ccccc2[nH]1 [Compound 63]
inhibition of SARS-CoV-2 3CLPro (SARS-CoV-2 3CLpro [4]): nanomolar inhibition

O=C(C(=O)N1CCN(C(=O)c2ccccc2)CC1)c1c[nH]c2ccccc12 [Compound 64]
inhibition of HIV-1 (HIV-1): nanomolar inhibition

C[C@@H]1CN(C(=O)c2ccccc2)CCN1C(=O)C(=O)c1c[nH]c2ccccc12 [Compound 65]
inhibition of HIV-1 (HIV-1): nanomolar inhibition

CC[C@H](C)[C@@H]1NC(=O)[C@H](CC(C)C)NC(=O)[C@@H](N2C(=O)N[C@@H](C)C2=O)CNC(=O)[C@H](CS(=O)(=O)O)NC(=O)/C=C/c2csc(n2)[C@H](Cc2ccc(O)cc2)NC(=O)C1=O [Compound 66, cyclotheonellazole D]
change of SARS-CoV-2 3CLPro inhibition in the presence of DTT (SARS-CoV-2 3CLpro [4]; DTT (4 mM) versus no DTT, ref [36]): more than eightfold reduction
elastase inhibition (elastase): nanomolar potent inhibitor

purealidine Q
anti-prion activity in a yeast-based assay (prion): micromolar anti-prion activities
